Source: patent US8372950B2, “IgG binding peptide” (Kagoshima University, priority 2006, dated 2013)
Positions of bridges follow the written chain, without caps; N, C: chain ends. Residues, ends and D or L forms follow the SMILES beside them. No end group written: not given here. *: point of attachment. Biotin = O=C1N[C@H]2[C@H](CS[C@H]2CCCCC(=O)*)N1; Ahx = NCCCCCC(=O)O

Legend:
[1] = system: human IgG isotypes (hIgG1 to hIgG4); test: ELISA assay of biotinylated synthetic peptides on human IgG isotypes; format: binding; settings: FIG. 7
Description: (§1) The binding activity of the thus obtained biotinylated synthetic peptides to human IgG was assayed by an ELISA assay. The ELISA assay was conducted basically in a manner similar to that in Example 1. Specifically, wells coated with human IgG (100 ng/50 μl/well) were blocked by the addition of 0.5% BSA. A biotinylated synthetic peptide and alkaline phosphatase-labeled streptavidin (SA-AP) were mixed in advance at a molar ratio of 4:1 and then the mixture was added to the well, followed by 1 hour of reaction. Para-nitrophenyl phosphate (Wako) was used for color development. Detection was carried out by measuring absorbance at 405 nm. As a positive control of human IgG, the Fc fragment of hIgG was used. As other control proteins, human IgA and IgE, mouse IgG, IgA, and IgE, hTF, fetal bovine serum (FBS), HSA, BSA, and gelatin were used.
Furthermore, the binding activity of the biotinylated synthetic peptides to human IgG isotypes (hIgG1 to hIgG4), was assayed similarly by an ELISA assay. As a control protein of human IgG, BSA was used.

[2] = system: human IgG; test: SPR kinetic analysis of binding between synthetic peptides and human IgG; settings: for association rate constants (ka) / dissociation rate constants (kd) / Kd: biotinylated peptide immobilized on sensor chip SA, human IgG as analyte, 25° C.; for Kd: read-out: Dissociation constants (Kd)
Description: Binding between the synthetic peptide IMGpep-1, IMGpep-1E6Q, IMGpep-4, or IMGpep-4K6R and human IgG was subjected to kinetic analysis of binding using surface plasmon resonance (SPR). SPR analysis was carried out using BIAcore2000 (BIAcore) at 25° C. Necessary reagents and sensor chips were purchased from BIAcore and then used. A 50 μM solution (pH 5) of each of four biotinylated synthetic peptides (IMGpep-1, IMGpep1E6Q, IMGpep4, and IMGpep-4K6R) was injected over a sensor chip SA, so as to immobilize the peptide on the chip. The amount of each peptide to be immobilized was adjusted so that the RU (response unit) ranged from 1500 to 2000. Subsequently, human IgG (analyte) was injected at a flow rate of 10 μl/min and at various concentrations (660 nM, 330 nM, 165 nM, 82 nM, and 41 nM) through flow cells with the aforementioned sensor chips SA on which the biotinylated-peptides had been immobilized. Binding reaction between human IgG and the peptides was measured. Thereafter, washing with running buffer (HBS-T) was conducted and then dissociation reaction was measured. For washing/elution of bound analytes from the sensor chips, 0.2 M glycine-HCl buffer (pH 2.7) was used. Binding parameters were analyzed using BIA evaluation Version 3.2 software.

[3] = system: human IgG; test: ELISA assay of biotinylated synthetic peptides on human IgG; format: binding; settings: FIG. 6; for binding to human IgG: biotinylated peptide
Description: as §1

[4] = system: Fc fragment of hIgG; test: ELISA assay of biotinylated synthetic peptides on Fc fragment; format: binding, human; settings: biotinylated peptide, FIG. 6
Description: as §1

[5] = system: human IgG; test: immunoprecipitation of human IgG with peptide- or phage-immobilized magnetic beads; format: binding; settings: immobilized on magnetic beads, FIG. 9; for immunoprecipitated human IgG: western blotting
Description: The above cloned T7 phage G-1 (1.0×10^12 pfu) subjected to ultracentrifuge purification or a synthetic peptide IMGpep-1 (150 nmol) was immobilized on 3 mg of tosyl-activated M450 Dynabeads magnetic beads (Dynal) via covalent binding to the terminal amino group according to the protocols recommended by the manufacturer. The beads were blocked with a PBS solution containing 0.5% BSA and then added to 1 ml of hIgG/BSA/PBS (10 μg/ml hIgG and 1 mg/ml BSA), followed by 1 hour of reaction at room temperature while mixing the solution via stirring. Beads were washed 3 times with PBST, SDS-sample buffer was added thereto, and then SDS-PAGE fractionation was carried out. Subsequently, they were subjected to western blotting analysis using a biotinylated anti-hIgG goat polyclonal antibody (Goat Anti-hIgG-pAb-biotin; Pharmingen) and SA-HRP, and then human IgG immunoprecipitated by binding to beads was detected.
Furthermore, immunoprecipitation reaction was similarly carried out using phage clones G-1 415 or IMGpep-2 instead of phage G-1 or IMGpep-1 to detect human IgG. Here, the phage clone G-1 415 (Novagen) is a phage displaying G-1 peptide at all the 415 G10 proteins composing the capsid of T7 phage. Moreover, immunoprecipitation reaction and detection were similarly carried out using an anti-hIgG goat (Fab′)2 fragment, wild-type T7 phage, and BSA, as a control of phage G-1 or IMGpep-1.

[6] = molecular target: T1, human MRA (IgG) (Homo sapiens, UniProt P01857); test: dot blotting detection of human MRA (IgG) on nitrocellulose membranes; format: binding
T1 construct: purchased Chugai Pharmaceutical
Description: Specifically, acid-treated human MRA (IgG) and untreated human MRA (IgG) were spotted on nitrocellulose membranes in an amount of 1.5 ng, 3 ng, 6 ng, 12.5 ng, 25 ng, 50 ng, and 100 ng per spot. The membranes were dried for 5 minutes and then 0.5% BSA was added for blocking for 2 hours at room temperature. Here, acid-treated human MRA was prepared by adding 10 μl of 1 M glycine-HCl (pH 2.8) to 100 μl of humanized anti-human IL-6 receptor IgG antibody (MRA) (2000 μg/ml, PBS solution), carrying out incubation at 40° C. for 10 minutes, and then neutralizing it by the addition of 30 μl of 1 M Tris-HCl (pH 8.7).
The mixture was added to the membranes blocked as described above, followed by 1 hour of reaction. After 3 times of washing with PBS containing 0.1% Tween20, a chemiluminescence reagent (Chemi-Lumi One, Nakalai Tesque) was added. Images were analyzed for detection using a LAS-1000 Image Analyzer (Fuji Film).

[7] = molecular target: T2, human IgG MRA (Homo sapiens, UniProt P01857); test: immunoprecipitation of MRA fractions with IMGpep-4K6R peptide; format: binding
T2 construct: purchased Chugai Pharmaceutical
Description: An immunoprecipitation experiment using an IMGpep-4K6R peptide was conducted by a method similar to that employed in Example 8 for each of an untreated MRA sample, an acid-treated MRA sample (acid treated for 10 minutes at pH 2.2 and 4° C.), a flow-through fraction obtained by passing an acid-treated MRA sample through a biotinylated IMGPep-4K6R peptide-immobilized column, and a purified acid-denatured MRA sample (an adsorbed fraction obtained by passing a human IgG sample subjected to 10 minutes of acid treatment at pH 2.2 and 4° C. through an IMGpep-4K6R peptide-immobilized column). IgG precipitated with the peptide immobilized on magnetic beads was subjected to 12.5% SDS-PAGE and then to CBB staining, and then observed.

[8] = molecular target: T3, anti-HER2 human IgG (Homo sapiens, UniProt P01857); test: separation on IMGpep-4K6R-immobilized column; format: binding; settings: untreated anti-HER2 human IgG sample
T3 construct: purchased Herceptin
Description: Moreover, a biotinylated IMGPep-4K6R peptide (biotin-spacer-[…] (SEQ ID NO: 11)) solution (500 μM, 1 ml) was injected to a HiTrap Streptavidin HP column (GE Healthcare) to prepare the column in which IMGPep-4K6R was immobilized. The antibody sample was injected at a flow rate of 0.4 ml/min to the IMGPep-4K6R-immobilized column. Gradient elution was carried out using from 20 mM phosphate buffered saline (PBS, pH 7.0) containing 0.1 M NaCl to 0.1M glycine-HCl (pH 2.5) containing 0.1 M NaCl.

[9] = molecular target: IgG antibody; settings: literature (DeLano et al.; Dias et al.); cited from earlier work

T1 sequence (P01857 1-330 isoform P01857-1, other chains not shown): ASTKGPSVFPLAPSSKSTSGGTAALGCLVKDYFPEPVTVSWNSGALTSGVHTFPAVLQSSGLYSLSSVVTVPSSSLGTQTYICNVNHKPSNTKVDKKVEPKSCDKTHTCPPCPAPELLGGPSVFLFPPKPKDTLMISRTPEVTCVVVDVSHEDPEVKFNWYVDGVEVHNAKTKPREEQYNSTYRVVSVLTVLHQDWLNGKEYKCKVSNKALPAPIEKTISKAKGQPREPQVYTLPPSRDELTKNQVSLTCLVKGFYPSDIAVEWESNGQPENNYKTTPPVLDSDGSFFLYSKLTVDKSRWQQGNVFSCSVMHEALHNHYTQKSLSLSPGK
T2 sequence (P01857 1-330 isoform P01857-1, other chains not shown): as above
T3 sequence (P01857 1-330 isoform P01857-1, other chains not shown): as above

Row | Compound | binding activity to human IgG1, IgG2, IgG3, and IgG4 [1] | association rate constants (ka) [2] [M⁻¹ s⁻¹] | dissociation rate constants (kd) [2] [s⁻¹] | Kd [2] [nM] | binding to human IgG [3] | other results
1 | CC(C)C[C@@H]1NC(=O)CNC(=O)[C@H](Cc2c[nH]c3ccccc23)NC(=O)[C@H](CCC(N)=O)NC(=O)[C@H](CO)NC(=O)[C@H](CCCNC(=N)N)NC(=O)[C@H](Cc2c[nH]c3ccccc23)NC(=O)[C@H](Cc2ccc(O)cc2)NC(=O)CNC(=O)[C@@H](NC(=O)CNC(=O)CCCCCNC(=O)CCCC[C@@H]2SC[C@@H]3NC(=O)N[C@@H]32)CSSC[C@@H](C(=O)NCC(=O)O)NC1=O [IMGpep-1E6Q] ({Biotin-Ahx}-GCGYWRSQWGLCG-OH; disulfide 2-12) | strong binding activity | 15000 | 0.00031 | 21 | – | binding activity to human IgG1 to IgG4 relative to IMGpep-1 and IMGpep-4 [1]: increase to a greater extent; binding activity compared with the original peptides IMGpep-1 and IMGpep-4 [3]: significantly and drastically increased
2 | CC(C)C[C@@H]1NC(=O)CNC(=O)[C@H](Cc2c[nH]c3ccccc23)NC(=O)[C@H](CCC(=O)O)NC(=O)[C@H](CO)NC(=O)[C@H](CCCNC(=N)N)NC(=O)[C@H](Cc2c[nH]c3ccccc23)NC(=O)[C@H](Cc2ccc(O)cc2)NC(=O)CNC(=O)[C@@H](NC(=O)CNC(=O)CCCCCNC(=O)CCCC[C@@H]2SC[C@@H]3NC(=O)N[C@@H]32)CSSC[C@@H](C(=O)NCC(=O)O)NC1=O [IMGpep-1] ({Biotin-Ahx}-GCGYWRSEWGLCG-OH; disulfide 2-12) | strong binding activity | 20000 | 0.00034 | 17 | specifically bound to human IgG | binding to the Fc fragment of human IgG [4]: bound to the Fc fragment of human IgG; human IgG trapping efficiency compared with IMGpep-2 [5]: clearly higher; immunoprecipitated human IgG [5]: clearly observed
3 | CC(C)C[C@@H]1NC(=O)CNC(=O)[C@H](Cc2c[nH]c3ccccc23)NC(=O)[C@H](C)NC(=O)[C@H](CCCNC(=N)N)NC(=O)[C@@H]2CCCN2C(=O)[C@H](Cc2c[nH]c3ccccc23)NC(=O)[C@H](Cc2ccc(O)cc2)NC(=O)CNC(=O)[C@H]([C@@H](C)O)NC(=O)[C@@H](NC(=O)CNC(=O)CCCCCNC(=O)CCCC[C@@H]2SC[C@@H]3NC(=O)N[C@@H]32)CSSC[C@@H](C(=O)NCC(=O)O)NC1=O [IMGpep-4K6R] | strong binding activity | 16000 | 0.00038 | 24 | – | antibody sample sufficiently detected ([6]; acid-treated MRA (pH 2.8, 40° C., 10 minutes), K6R(A)): ≤ 1.5 ng/mL; IgG-detection sensitivity and intensity after acid treatment ([6]; acid-treated MRA, K6R(A)): greatly enhanced; lowest spot of untreated human MRA (IgG) detected ([6]; untreated MRA, K6R(N)): ≤ 1.5 ng/mL; overall signal intensity of the detected spots ([6]; untreated MRA, K6R(N)): significantly weak; binding activity to human IgG1 to IgG4 relative to IMGpep-1 and IMGpep-4 [1]: increase to a greater extent; binding activity compared with the original peptides IMGpep-1 and IMGpep-4 [3]: significantly and drastically increased; immunoprecipitation of MRA antibody ([7]; flow-through fraction of acid-treated MRA, lane 4): never observed; immunoprecipitation of MRA antibody ([7]; untreated MRA, lane 1): not immunoprecipitated; behaviour of IgG on the column [8]: passed through
4 | CC(C)C[C@@H]1NC(=O)CNC(=O)[C@H](Cc2c[nH]c3ccccc23)NC(=O)[C@H](C)NC(=O)[C@H](CCCCN)NC(=O)[C@@H]2CCCN2C(=O)[C@H](Cc2c[nH]c3ccccc23)NC(=O)[C@H](Cc2ccc(O)cc2)NC(=O)CNC(=O)[C@H]([C@@H](C)O)NC(=O)[C@@H](NC(=O)CNC(=O)CCCCCNC(=O)CCCC[C@@H]2SC[C@@H]3NC(=O)N[C@@H]32)CSSC[C@@H](C(=O)NCC(=O)O)NC1=O [IMGpep-4] ({Biotin-Ahx}-GCTGYWPKAWGLCG-OH; disulfide 2-13) | strong binding activity | 14000 | 0.00041 | 28 | specifically bound to human IgG | binding to the Fc fragment of human IgG [4]: bound to the Fc fragment of human IgG
5 | DCAWHLGELVWCT [Fc-III] | – | – | – | – | – | Kd [9]: 185 nM
6 | GCTGFWEREWGLCG [IMGpep-2] | – | – | – | – | – | immunoprecipitated human IgG [5]: clearly observed
7 | GSGYWRSEWGLSG ({Biotin-Ahx}-GSGYWRSEWGLSG) [IMGpep-1CS] | almost completely lose its binding activity | – | – | – | almost lose the binding activity | detection of spots of untreated human MRA (IgG) ([6]; untreated MRA, CS(N)): could not detect any spots; increased response signal due to the binding ([2]; control ligand immobilized, human IgG injected): never observed
